Data as given in patent US20140378408A1, “NUCLEOSIDE 5'-PHOSPHOROTHIOATE ANALOGUES AND USES THEREOF” (BAR-ILAN UNIVERSITY, an Israeli University, priority 2012, published 2014).
Where two headings read alike, the source gives them in different places.

Tests used:
Aβ42-Zn^2+ aggregates = molecular target: T1, Aβ42-Zn^2+ aggregates (Homo sapiens, UniProt P05067); assay: Turbidity assay at 405 nm, Aβ42-Zn^2+ aggregates
T1 construct: Aggregation of monomeric Aβ42 was achieved by adding Zn(NO3)2 to a Aβ42 solution; purchased GL-Biochem (Shanghai)
T1 sequence (P05067 672-713 limits assumed): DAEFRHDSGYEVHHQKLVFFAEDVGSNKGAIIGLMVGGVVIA
Experimental: Aβ42 was weighted and dissolved in 10 mM NaOH, sonicated for 3 min and then freeze-dried. The freeze-dried Aβ42 was dissolved in 50 mM Tris-HCl (pH 7.4). The mixture was split and the pH of one of the samples was adjusted to 7.4 and the second sample to 6.6 by addition of 200 μM HCl. Two 300 μM Aβ42 mixtures were obtained. From these mixtures, controls and Aβ42-M^2+ aggregates were prepared by the addition of 1 mM Zn(NO3)2 or Cu(NO3)2 in DDW: 1. 200 μM Aβ42 (pH 7.4); 2. 200 μM Aβ42 (pH 6.6); 3.4×200 μM Aβ42-Zn^2+ (pH 7.4); 4.4×200 μM Aβ42-Cu^2+ (pH 6.6). The mixtures were left at RT for 2 h to form aggregates. 1 mM EDTA, ADP-β-S, and APCPP-γ-S in DDW were added to Aβ42-Zn^2+/Cu^2+ aggregates, then the mixtures were diluted with buffer to give the following mixtures: (i) 50 μM Aβ42-Cu^2+/Zn^2+; (ii) 50 μM Aβ42-Cu^2+/Zn^2+ containing 150 μM chelator (3 eq or) 300 μM chelator (6 eq) final volume 100 μl. The mixtures left at RT for 30 min before measurements, done in duplicate. 80 μl sample was taken for measurements in a quartz cuvette.
Aggregation of Aβ-metal ion complexes results in a turbid mixture that increases the light scattering in solution, leading to a higher absorbance at 405 nm (Storr et al., 2009).
Aggregation of monomeric Aβ42 was achieved by adding Zn(NO3)2 to a Aβ42 solution at pH 7.4, and Cu(NO3)2 to a Aβ42 solution at pH 6.6. […] The resultant Aβ42 mixtures were assayed for the resolubilization capacity of ADP-β-S and APCPP-γ-S in comparison to EDTA. […] At […] chelator, EDTA, ADP-β-S and APCPP-γ-S were almost equi-efficacious (FIG. 8B).

cortical neurons = assay: Neuroprotection of cultured cortical neurons exposed to FeSO4 or FeSO4/H2O2; format: cell-based
Experimental: FIGS. 10A-10B show the neuroprotective effect of ATP-γ-S and GDP-β-S (0.2-200 μM, t=24 h) as evaluated by MTT production in cortical neurons exposed for 24 h to either FeSO4 at final concentration of 3 μM (10A); or both FeSO4 (3 μM) and H2O2 (100 μM) (10B). The results shown are the mean±SEM of three independent experiments in quadruplicate.
Cultured cortical neurons in 96-well plates were treated with different concentrations of FeSO4, or hydrogen peroxide and FeSO4, for 24 h at 37° C. Following exposure to various insults, the cells were treated with ATP-γ-S and GDP-β-S as described. Cells were subsequently incubated for a further 18-24 h as indicated before being assessed for viability measures. Neurons were treated with ATP-γ-S and GDP-β-S at three concentrations ([…]) simultaneously with 1.5, 3 or 6 μM FeSO4 for 24 h. Following 24 h incubation in the presence of both FeSO4 and ATP-γ-S and GDP-β-S cell viability measures were assessed by XTT assay. All experiments were performed in triplicate.
FeSO4 induced a concentration-dependent decrease in cell viability as assessed by XTT assay and morphological assessment following 24 h of exposure (FIG. 9). The neuroprotective effect of ATP-γ-S and GDP-β-S (due to iron chelation) was evaluated in cortical neurons exposed to FeSO4 for 24 h (FIG. 10).

[1] = Chemical stability (acid, base, air-oxidation) monitored by 31P-NMR; format: physicochemical; conditions: for stability: pD=1 as printed, two weeks
Experimental: In order to study and evaluate the chemical stability of adenosine-5′-tetrathio bisphosphonate and di-adenosine 5′,5″-tetrathiobisphosphonate to basic and acidic condition, as well as to air-oxidation, kinetic measurements were performed by monitoring the changes in the percentage of these amalogues, using ^31P-NMR (FIGS. 16-18).
The evaluation of the stability of adenosine-5′-tetrathio bisphosphonate by ^31P-NMR was first conducted at pD=1.5 for four days. In the course of the experiment, new signals emerged in ^31P-NMR spectra at 104.4, 92.3, 89.2, 86.1, 67.8 ppm and the percentage of starting material was obtained from the ratio of integration between the starting material and the total peaks in the spectrum.
Next, we studied the stability of adenosine-5′-tetrathio bisphosphonate under basic conditions, pD=11. […] After two weeks, the ^31P-NMR spectrum was identical to the starting material, without any indication of decomposition. We associate this with the repulsion between the negative charges of the tetrathio-bisphosphonate moiety in adenosine-5′-tetrathio bisphosphonate and OH^− ions. In addition, intramolecular nucleophilic attack and formation of disulfide bond are less likely to occur under these conditions.
Furthermore, we tested the stability of adenosine-5′-tetrathio bisphosphonate under air-oxidizing conditions, by performing ^31P-NMR measurements in an open rotating NMR tube. […] The MS and ^31P-NMR analysis of the freeze-dried sample of adenosine-5′-tetrathio bisphosphonate after 3 days indicated the formation of an intramolecularly oxidized product.

Question: With `Nc1ncnc2c1ncn2[C@@H]1O[C@H](COP(=O)(O)OP(O)(O)=S)[C@@H](O)[C@H]1O` [ADP-β-S, adenosine 5′-[β-thio]diphosphate, reference compound] as the compound, how does the “less effective than EDTA by” value (Aβ42-Zn^2+ aggregates; 3 eq) read?
Answer: Its value is 63%.

Question: What about the “less effective than EDTA by” value (Aβ42-Zn^2+ aggregates; 6 eq) of the same compound?
Answer: The value was 27%.

Question: What about the IC50 (cortical neurons; Table 2, neuroprotection of primary neurons exposed to FeSO4, read-out: IC50) of the same compound?
Answer: The IC50 was 1200 ± 7 nM.

Question: With `Nc1ncnc2c1ncn2[C@@H]1O[C@H](COP(=O)(O)CP(=O)(O)OP(O)(O)=S)[C@@H](O)[C@H]1O` [APCPP-γ-S, adenosine 5′-[Pγ-thio]-α,β-methylenetriphosphate] as the compound, how does the “less effective than EDTA by” value (Aβ42-Zn^2+ aggregates; 3 eq) read?
Answer: Its value is 21%.

Question: And the “less effective than EDTA by” value (Aβ42-Zn^2+ aggregates; 6 eq)?
Answer: Its value is 12%.

Question: And the IC50 (cortical neurons; Cortical neurone, read-out: IC50 protection from damage caused by FeSO4)?
Answer: The IC50 was 40 nM.

Question: Which stability [1] does the source give for adenosine-5′-tetrathiobisphosphonate here?
Answer: Its stability is “completely stable even after two weeks”.

Question: And the “stability under basic conditions” value ([1]; pD=11, two weeks)?
Answer: The value was “highly stable”.

Question: For “di-adenosine-5′,5″-tetrathiobisphosphonate”, which “stability under air-oxidizing conditions” value ([1]; open NMR tube, 3 days) is on record?
Answer: The value was “highly stable”.

Question: What about the stability [1] of the same compound?
Answer: The stability was “identical to that of adenosine 5′-tetrathiobisphosphonate”.
